Measurements: patent US9132130B2, “Purine derivative and antitumor agent using same” (ZENYAKU KOGYO KABUSHIKI KAISHA, priority 2009, dated 2015)

How the values were obtained:
Assay type in all cases: cell-based
[1] = system: WiDr cells (human colon cancer cells); assay: in vitro antitumor activity test, WiDr cells, XTT colorimetry; conditions: cultured 72 hours
Experimental: (§1) WiDr cells (human colon cancer cells) subcultured in a culture medium composed of a MEM medium added with 10% fetal bovine serum, 25 mM HEPES and 0.1 mg/ml kanamycin under the conditions of 37° C. and 5% carbon dioxide gas were made into single floating cells by treating with trypsin/EDTA, and a single cell suspension of 3×10^4 cells per 1 ml was prepared using the MEM medium (added with 10% fetal bovine serum, 25 mM HEPES and 0.1 mg/ml kanamycin). After dissolving the test compounds in DMSO, they were diluted in a RPMI 1640 medium (added with 10% fetal bovine serum, 25 mM HEPES and 0.1 mg/ml kanamycin) and prepared so that the concentrations were 2.0×10^−9 to 2.0×10^−4 M.
(§2) 0.1 ml of the cell suspension was placed into each well of 96-well microplates, cultured for 24 hours to allow the cells to adhere to the microplates, then 0.1 ml of the sample solutions were added, and cultured for 72 hours at 37° C. in 5% carbon dioxide gas.
(§3) Afterwards, the level of growth inhibition at various sample concentrations was obtained using XTT colorimetry, and concentrations at which growth was inhibited by 50% (GI50 values [μM]) were calculated.

[2] = system: PC-3 cells (human prostate cancer cells); assay: in vitro antitumor activity test, PC-3 cells, XTT colorimetry; conditions: PC-3 human prostate cancer cells, cultured 72 hours
Experimental: as §1, §2, §3
(§4) In addition, cells other than WiDr cells that were used, and the condition for preparing each single cell suspension were as follows.
PC-3 cells (human prostate cancer cells): 2×10^4 cells/ml

[3] = system: A549 cells (human lung cancer cells); assay: in vitro antitumor activity test, A549 cells, XTT colorimetry; conditions: cultured 72 hours
Experimental: as §1, §2, §3, §4
A549 cells (human lung cancer cells): 2×10^4 cells/ml

[4] = system: B16F10 cells (mouse melanoma [malignant melanoma] cells); assay: in vitro antitumor activity test, B16F10 cells, XTT colorimetry; conditions: B16-F10, cultured 72 hours
Experimental: as §1, §2, §3, §4
B16F10 cells (mouse melanoma [malignant melanoma] cells): 1×10^4 cells/ml

[5] = system: P388 cells (mouse leukemia cells); assay: in vitro antitumor activity test, P388 cells, XTT colorimetry; conditions: cultured 72 hours
Experimental: P388 cells (mouse leukemia cells) passaged in the abdominal cavity of DBA/2 mice were extracted with ascitic fluid, and cultured in a RPMI 1640 medium (added with 10% fetal bovine serum, 25 mM HEPES, 0.1 mg/ml kanamycin and 5 μM 2-hydroxyethyldisulfide) at 37° C. in 5% carbon dioxide gas. After culturing for 16 hours, floating P388 cells were made into a single cell suspension of 4×10^4 cells per 1 ml using the same RPMI 1640 medium as given above. The test substances were dissolved in DMSO, then diluted in a RPMI 1640 medium (added with 10% fetal bovine serum, 25 mM HEPES and 0.1 mg/ml kanamycin) and prepared so that the concentrations were 2.0×10^−9 to 2.0×10^−4 M.
0.1 ml of the cell suspension was placed into each well of 96-well microplates, then 0.1 ml of the sample solutions were added, and cultured for 72 hours at 37° C. in 5% carbon dioxide gas.
as §3

Work on `CCOc1ccc(CSc2nc(N3C=COCC3)c3ncn(CC)c3n2)cc1N` [Compound 156, 2-(3-amino-4-ethoxybenzylsulfanyl)-6-(2,3-dihydro-[1,4]oxadin-4-yl)-9-ethyl-9H-purine] yielded a GI50 [1] of 3380 nM, a GI50 [2] of 1040 nM and a GI50 [3] of 700 nM. It also gave a GI50 [4] of 1400 nM and a GI50 [5] of 740 nM.
`CCc1nc2c(N3CCOCC3)nc(SCc3ccc(OC)cc3OCc3ccccc3)nc2n1C` [Compound 15, 2-(2-benzyloxy-4-methoxybenzylsulfanyl)-8-ethyl-9-methyl-6-morpholino-9H-purine] showed a GI50 [1] of 1160 nM, a GI50 [2] of 820 nM and a GI50 [3] of 2280 nM. For the same compound, the GI50 [4] was 1800 nM and the GI50 [5] was 870 nM.
For `COc1ccc(CSc2nc(-c3ccsc3)c3ncn(C)c3n2)cc1` [Compound 168, 2-(4-methoxybenzylsulfanyl)-9-methyl-6-(3-thienyl)-9H-purine], the GI50 [1] was 140 nM, the GI50 [2] was 320 nM and the GI50 [3] was 220 nM. For the same compound, the GI50 [4] was 210 nM and the GI50 [5] was 140 nM.
Work on `COc1ccc(CSc2nc(N(C)OC)c3ncn(C)c3n2)cc1` [Compound 105, 6-(N-methoxy-N-methylamino)-2-(4-methoxybenzylsulfanyl)-9-methyl-9H-purine] yielded a GI50 [1] of 260 nM, a GI50 [2] of 560 nM and a GI50 [3] of 240 nM. The GI50 [4] was 410 nM and the GI50 [5] was 240 nM.
`CCc1nc2c(N(C)C)nc(SCc3ccc(OC)cc3)nc2n1C` [Compound 24, 6-dimethylamino-8-ethyl-2-(4-methoxybenzylsulfanyl)-9-methyl-9H-purine] gave a GI50 [1] of 210 nM, a GI50 [2] of 260 nM and a GI50 [3] of 320 nM. For the same compound, the GI50 [4] was 440 nM and the GI50 [5] was 200 nM.
`C/C=C/c1nc(SCc2ccc(OC)c(N)c2)nc2c1ncn2C` [Compound 173, 2-(3-amino-4-methoxybenzylsulfanyl)-9-methyl-6-(1-trans-propenyl)-9H-purine] showed a GI50 [1] of 1510 nM, a GI50 [2] of 380 nM and a GI50 [3] of 160 nM. For the same compound, the GI50 [4] was 250 nM and the GI50 [5] was 90 nM.
In the case of `CN(C)c1nc(SCc2ccccc2)nc2[nH]cnc12` [Compound C, reference compound], the GI50 [1] is reported as > 10000 nM, the GI50 [2] is reported as > 10000 nM and the GI50 [3] is reported as > 10000 nM. The GI50 [4] was > 10000 nM and the GI50 [5] was > 10000 nM.
With `CCOc1ccc(CSc2nc(N3CCOCC3)c3nc(CC)n(C)c3n2)cc1N` [Compound 103, 2-(3-amino-4-ethoxybenzylsulfanyl)-8-ethyl-9-methyl-6-morpholino-9H-purine] the GI50 [1] was 280 nM, the GI50 [2] was 130 nM and the GI50 [3] was 230 nM. For the same compound, the GI50 [4] was 320 nM and the GI50 [5] was 170 nM.
`COc1ccc(CSc2nc(N(C)C)c3ncn(C)c3n2)cc1F` [Compound 86, 6-dimethylamino-2-(3-fluoro-4-methoxybenzylsulfanyl)-9-methyl-9H-purine] showed a GI50 [1] of 40 nM, a GI50 [2] of 50 nM and a GI50 [3] of 50 nM. The GI50 [4] was 60 nM and the GI50 [5] was 30 nM.
`CCc1nc2c(N3CCOCC3)nc(SCc3ccc(OC)c(NC(C)=O)c3)nc2n1C` [Compound 27, 2-(3-acetylamino-4-methoxybenzylsulfanyl)-8-ethyl-9-methyl-6-morpholino-9H-purine] showed a GI50 [1] of 920 nM, a GI50 [2] of 650 nM and a GI50 [3] of 580 nM. It also gave a GI50 [4] of 1340 nM and a GI50 [5] of 670 nM.
Compound `COc1ccc(CSc2nc(-n3cccc3)c3ncn(C)c3n2)cc1` [Compound 109, 9-methyl-2-(4-methoxybenzylsulfanyl)-6-(1-pyrrolyl)-9H-purine] has a GI50 [1] of 360 nM, a GI50 [2] of 580 nM and a GI50 [3] of 570 nM. It also gave a GI50 [4] of 510 nM and a GI50 [5] of 320 nM.
With `CCc1nc2c(N3CCOCC3)nc(SCc3ccc(OC)c(F)c3)nc2n1C` [Compound 14, 8-ethyl-2-(3-fluoro-4-methoxybenzylsulfanyl)-9-methyl-6-morpholino-9H-purine] the GI50 [1] was 260 nM, the GI50 [2] was 160 nM and the GI50 [3] was 120 nM. For the same compound, the GI50 [4] was 340 nM and the GI50 [5] was 200 nM.
`CCNc1nc(SCc2ccc(OC)cc2)nc2c1ncn2C` [Compound 64, 6-ethylamino-2-(4-methoxybenzylsulfanyl)-9-methyl-9H-purine] showed a GI50 [1] of 310 nM, a GI50 [2] of 450 nM and a GI50 [3] of 480 nM. For the same compound, the GI50 [4] was 380 nM and the GI50 [5] was 380 nM.
In the case of `CCc1nc2c(N3CCOCC3)nc(SCc3ccc(C)cc3)nc2n1C` [Compound 8, 8-ethyl-9-methyl-2-(4-methylbenzylsulfanyl)-6-morpholino-9H-purine], the GI50 [1] is reported as 1470 nM, the GI50 [2] is reported as 610 nM and the GI50 [3] is reported as 2200 nM. It also gave a GI50 [4] of 1700 nM and a GI50 [5] of 1020 nM.
Compound `CCOc1ccc(CSc2nc(N3CCOCC3)c3nc(CC)n(C)c3n2)cc1F` [Compound 116, 2-(4-ethoxy-3-fluorobenzylsulfanyl)-8-ethyl-9-methyl-6-morpholino-9H-purine] has a GI50 [1] of 330 nM, a GI50 [2] of 320 nM and a GI50 [3] of 450 nM. The GI50 [4] was 440 nM and the GI50 [5] was 290 nM.
`CCOc1ccc(CSc2nc(N3CCOCC3)c3nc(CC)n(CC)c3n2)cc1N` [Compound 106, 2-(3-amino-4-ethoxybenzylsulfanyl)-8,9-diethyl-6-morpholino-9H-purine] was tested, and the GI50 [1] was 290 nM, the GI50 [2] was 950 nM and the GI50 [3] was 140 nM. For the same compound, the GI50 [4] was 300 nM and the GI50 [5] was 200 nM.
In the case of `CCOc1ccc(CSc2nc(N3C=COCC3)c3ncn(CC)c3n2)cc1[N+](=O)[O-]` [Compound 155, 6-(2,3-dihydro-[1,4]oxadin-4-yl)-9-ethyl-2-(3-nitro-4-ethoxybenzylsulfanyl)-9H-purine], the GI50 [1] is reported as 940 nM, the GI50 [2] is reported as 1500 nM and the GI50 [3] is reported as 500 nM. For the same compound, the GI50 [4] was 1310 nM and the GI50 [5] was 490 nM.
`CCN(C)c1nc(SCc2ccc(OC)c(C#N)c2)nc2c1ncn2C` [Compound 85, 2-(3-cyano-4-methoxybenzylsulfanyl)-6-(N-ethyl-N-methylamino)-9-methyl-9H-purine] showed a GI50 [1] of 80 nM, a GI50 [2] of 120 nM and a GI50 [3] of 140 nM. It also gave a GI50 [4] of 120 nM and a GI50 [5] of 70 nM.
In the case of `CCN(CC)c1nc(SCc2ccc(OC)cc2)nc2c1ncn2C` [Compound 25, 6-diethylamino-2-(4-methoxybenzylsulfanyl)-9-methyl-9H-purine], the GI50 [1] is reported as 820 nM, the GI50 [2] is reported as 1130 nM and the GI50 [3] is reported as 950 nM. For the same compound, the GI50 [4] was 1380 nM and the GI50 [5] was 680 nM.
`CCc1nc2c(N3CCN(N=O)CC3)nc(SCc3ccc(OC)c(F)c3)nc2n1C` [Compound 20, 8-ethyl-2-(3-fluoro-4-methoxybenzylsulfanyl)-9-methyl-6-(4-nitrosopiperazin-1-yl)-9H-purine] showed a GI50 [1] of 80 nM, a GI50 [2] of 40 nM and a GI50 [3] of 160 nM. It also gave a GI50 [4] of 320 nM and a GI50 [5] of 80 nM.
`CCOc1ccc(CSc2nc(NC)c3ncn(C)c3n2)cc1N` [Compound 107, 2-(3-amino-4-ethoxybenzylsulfanyl)-9-methyl-6-methylamino-9H-purine] was tested, and the GI50 [1] was 310 nM, the GI50 [2] was 50 nM and the GI50 [3] was 70 nM. It also gave a GI50 [4] of 100 nM and a GI50 [5] of 30 nM.
Work on `COc1ccc(CSc2nc(N3C=COCC3)c3ncn(C)c3n2)cc1[N+](=O)[O-]` [Compound 149, 6-(2,3-dihydro-[1,4]oxadin-4-yl)-2-(4-methoxy-3-nitrobenzylsulfanyl)-9-methyl-9H-purine] yielded a GI50 [1] of 350 nM, a GI50 [2] of 530 nM and a GI50 [3] of 470 nM. The GI50 [4] was 1380 nM and the GI50 [5] was 490 nM.
`COc1ccc(CSc2nc(N3CCOCC3)c3ncn(C)c3n2)cc1` [Compound 9, 2-(4-methoxybenzylsulfanyl)-9-methyl-6-morpholino-9H-purine] gave a GI50 [1] of 400 nM, a GI50 [2] of 380 nM and a GI50 [3] of 570 nM. For the same compound, the GI50 [4] was 1170 nM and the GI50 [5] was 300 nM.
Work on `CCOc1ccc(CSc2nc(N3CCOCC3)c3nc(CC)n(CC)c3n2)cc1F` [Compound 117, 8,9-diethyl-2-(4-ethoxy-3-fluorobenzylsulfanyl)-6-morpholino-9H-purine] yielded a GI50 [1] of 290 nM, a GI50 [2] of 310 nM and a GI50 [3] of 430 nM. The GI50 [4] was 370 nM and the GI50 [5] was 300 nM.
With `CCc1nc2c(N(C)C)nc(SCc3ccc(OC)c(NC(C)=O)c3)nc2n1C` [Compound 60, 2-(3-acetylamino-4-methoxybenzylsulfanyl)-6-dimethylamino-8-ethyl-9-methyl-9H-purine] the GI50 [1] was 1300 nM, the GI50 [2] was 870 nM and the GI50 [3] was 1400 nM. For the same compound, the GI50 [4] was 1000 nM and the GI50 [5] was 610 nM.
Compound `CCc1nc2c(N(C)C)nc(SCc3ccc(OC)c(F)c3)nc2n1C` [Compound 71, 6-dimethylamino-8-ethyl-2-(3-fluoro-4-methoxybenzylsulfanyl)-9-methyl-9H-purine] has a GI50 [1] of 80 nM, a GI50 [2] of 50 nM and a GI50 [3] of 100 nM. The GI50 [4] was 110 nM and the GI50 [5] was 80 nM.
